Laboratory results published in patent US20020002202A1, “Use of fumarate salt of L-carnitine or its alkanoyl derivatives in ischaemia” (priority 1998, published 2002).
“Also recorded” adds a separate entry of the source.

Assays:
[1] = amount equivalent to the exogenous L-carnitine required; cited from earlier work
Perfused Heart = assay: low-pressure or low-flow ischemia model, perfused heart (Langendorff)
From the text: In this example, the low-pressure or low-flow ischemia model was used, which is a model recognised as valid for cardiac ischemia (Bolukoglu, H. et al. Am. J. Physiol. 1996: 270; H817-26).
The treatment schedule is illustrated in FIG. 1, in which the letters A-F denote the heart effluent sampling times for the measurement of metabolites. The hearts are removed from the animals and mounted on a Langerdorff appliance. The perfusion medium replacing the blood was a Krebs-Heinsleit standard bicarbonate buffer containing glucose 12 mM as energy source for cardiac metabolism.
After 30 minute perfusion at a pressure of 100 cm of water, ischemia was induced by reducing the perfusion pressure of the heart to 25 cm of water, thus reducing coronary flow from approximately 2 ml/min to approximately 0.3 ml/min. Reduction of the perfusion pressure gives rise to ischemia, since the heart will pump the fluid in the low-perfusion area rather than via the coronary bloodstream, supplying the flow to the heart.
This control model was compared with hearts perfused with L-carnitine 10 mM or L-carnitine fumarate 10 mM.
Cardiac function was tested in three different ways.
In the first, the NRM ^31P signal was monitored in real time.
This signal provides the best indication of the energy status of the heart.
In the second, the haemodynamics of the heart was measured by means of a pressure transducer mounted to measure the perfusion pressure. The haemodynamic measurements include heart rate, relative dP/dt (measurement of the contraction force of the heart) and the cardiac contraction amplitude. Coronary flow was also measured as an indicator of the heart's ability to provide oxygen and energy for its own metabolism.
In the third type of test, the metabolites and the enzyme LDH released by the heart were analysed in the effluent. The release of LDH indicates damage to cardiac tissue. The release of metabolites by the heart was tested by means of mass spectrometry coupled with gas chromatography.
The procedures of example 1 were substantially repeated, with the addition of a treatment with carnitine alone as a further control.

[2] = heart effluent, GC-MS, low-flow ischemia, 10 mM, vs control hearts

Row | Molecule | gastrointestinal disorders (increased volume and fluidity of faeces and frequency of bowel movements) [1] | ATP phosphate peaks (alpha, beta, gamma) (Perfused Heart; 31P NMR, FIG. 2, after 40 minutes of ischemia, Example 2) | reserves of high-energy phosphate (creatine phosphate observed at NMR) (Perfused Heart; 31P NMR, after 45 minutes of ischemia, 10 mM, vs control hearts) | succinate released by the heart (Perfused Heart; heart effluent, FIG. 3, as compared to lactate, Example 2) | lactate released by the heart (Perfused Heart; [2]) | release of malate (Perfused Heart; [2]) | release of LDH (Perfused Heart; heart effluent, low-flow ischemia, 10 mM in perfusion medium, vs control hearts) | coronary flow (Perfused Heart; postischemic, 10 mM, vs control hearts) | postischemic cardiac contraction amplitude (Perfused Heart; pressure transducer, 10 mM, vs control hearts)
1 | C[N+](C)(C)C[C@H](O)CC(=O)[O-].O=C(O)C(O)C(O)C(=O)O [L-carnitine L-tartrate] | caused |  |  |  |  |  |  |  | 
2 | C[N+](C)(C)C[C@H](O)CC(=O)[O-] [L-carnitine] | caused | lacking |  |  |  |  |  |  | 
3 | L-carnitine acid fumarate [L-carnitine fumarate] | eliminated |  | greater | low amount | less and reduction | more | reduced; also recorded: affords protection against ischemic damage | greater | greater
